pIC50, pKi: −log10 of the molar value. ≈ marks a conversion by molar mass, not a printed value.
How the values were obtained:
[1] = biological target: Muscarinic acetylcholine receptor M3 (Homo sapiens, UniProt P20309); assay: Antagonist activity at recombinant human muscarinic M3 receptor expressed in CHO-K1 cells assessed as inhibition of acetylcholine induced calcium mobilization preincubated for 10 mins followed by acetylcholine addition measured after 1 hr by fluo-4 AM dye-based FLIPR assay; type: functional, cell-based
Cytochrome P450 3A4 [2] = biological target: T1, Cytochrome P450 3A4 (Homo sapiens, UniProt P08684); assay: Inhibition of recombinant human CYP3A4 expressed in baculosomes preincubated for 10 mins followed by cofactor addition measured every minute for 10 mins using 7-benzyloxyquinoline as substrate by CYPEX assay
Cytochrome P450 3A4 [3] = biological target: T1, Cytochrome P450 3A4; assay: Inhibition of recombinant human CYP3A4 expressed in baculosomes preincubated for 10 mins followed by cofactor addition measured every minute for 10 mins using diethoxyflourescein as substrate by CYPEX assay
in vivo [4] = settings: Sprague-Dawley, rat
[5] = Efflux ratio of apparent permeability across basolateral to apical side in human Caco2 cells; type: ADME, cell-based; settings: Caco-2
D(3) dopamine receptor [6] = biological target: T2, D(3) dopamine receptor (Homo sapiens, UniProt P35462); assay: Antagonist activity at human dopamine D3 receptor expressed in CHO-K1 cell membranes after 90 mins by [35S]GTP-gamma-S binding assay in presence of 3 nM quinelorane
Cytochrome P450 2D6 = Cytochrome P450 2D6 (Homo sapiens, UniProt P10635); assay: Inhibition of recombinant human CYP2D6 expressed in baculosomes preincubated for 10 mins followed by cofactor addition measured every minute for 10 mins using 4-methylaminomethyl-7-methoxycoumarin as substrate by CYPEX assay
in vivo [7] = settings: Sprague-Dawley, rat, po
[8] = biological target: T3, Muscarinic acetylcholine receptor M1 (Homo sapiens, UniProt P11229); assay: Antagonist activity at recombinant human muscarinic M1 receptor expressed in CHO-K1 cells assessed as inhibition of acetylcholine induced calcium mobilization preincubated for 10 mins followed by acetylcholine addition measured after 1 hr by fluo-4 AM dye-based FLIPR assay; type: functional, cell-based
T3 sequence (P11229 whole entry): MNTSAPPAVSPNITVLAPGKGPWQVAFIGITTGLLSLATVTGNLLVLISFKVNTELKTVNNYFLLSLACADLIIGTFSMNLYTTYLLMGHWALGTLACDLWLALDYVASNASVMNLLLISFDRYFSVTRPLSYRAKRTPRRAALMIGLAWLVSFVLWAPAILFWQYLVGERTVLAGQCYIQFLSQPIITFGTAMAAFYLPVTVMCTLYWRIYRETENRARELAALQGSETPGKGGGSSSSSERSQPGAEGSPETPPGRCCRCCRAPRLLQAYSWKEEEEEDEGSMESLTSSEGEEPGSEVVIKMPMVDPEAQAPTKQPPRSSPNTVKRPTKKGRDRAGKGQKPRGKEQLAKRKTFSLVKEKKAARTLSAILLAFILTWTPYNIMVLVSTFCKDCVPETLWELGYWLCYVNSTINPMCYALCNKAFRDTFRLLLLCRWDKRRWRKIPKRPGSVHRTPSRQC

[9] = Volume of distribution at steady state in portal vein cannulated Sprague-Dawley rat model; settings: in vivo
[10] = biological target: Voltage-gated inwardly rectifying potassium channel KCNH2 (Homo sapiens, UniProt Q12809); assay: Inhibition of human ERG tail current expressed in HEK293 cells after 5 mins by patch clamp assay
[11] = Apparent permeability across apical to basolateral side in human Caco2 cells; type: ADME, cell-based; settings: Caco-2
[12] = Fraction unbound in Sprague-Dawley rat brain
Cytochrome P450 1A2 = biological target: T4, Cytochrome P450 1A2 (Homo sapiens, UniProt P05177); assay: Inhibition of recombinant human CYP1A2 expressed in baculosomes preincubated for 10 mins followed by cofactor addition measured every minute for 10 mins using ethoxyresorufin as substrate by CYPEX assay
T4 sequence (P05177 whole entry): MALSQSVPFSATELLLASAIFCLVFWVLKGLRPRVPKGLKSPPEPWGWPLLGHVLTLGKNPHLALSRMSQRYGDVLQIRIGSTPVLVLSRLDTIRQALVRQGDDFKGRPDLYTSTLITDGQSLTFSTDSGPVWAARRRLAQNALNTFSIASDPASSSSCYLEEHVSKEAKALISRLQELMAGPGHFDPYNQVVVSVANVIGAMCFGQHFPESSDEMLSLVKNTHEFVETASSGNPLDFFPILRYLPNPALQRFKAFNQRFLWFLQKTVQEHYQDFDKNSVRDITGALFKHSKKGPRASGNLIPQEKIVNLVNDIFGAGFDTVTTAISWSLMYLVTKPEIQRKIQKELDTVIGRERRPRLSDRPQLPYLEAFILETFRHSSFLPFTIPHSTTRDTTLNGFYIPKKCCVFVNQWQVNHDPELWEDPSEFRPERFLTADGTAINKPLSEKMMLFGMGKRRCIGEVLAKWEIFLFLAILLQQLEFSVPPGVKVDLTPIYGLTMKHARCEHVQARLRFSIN

[13] = Half life in portal vein cannulated Sprague-Dawley rat model; settings: in vivo
D(2) dopamine receptor [14] = biological target: T5, D(2) dopamine receptor (Homo sapiens, UniProt P14416); assay: Displacement of [3H]-spiperone from human dopamine D2 receptor expressed in CHO-K1 cell membranes after 120 mins by liquid scintillation counter method
D(2) dopamine receptor [15] = biological target: T5, D(2) dopamine receptor; assay: Antagonist activity at human dopamine D2L receptor expressed in CHO cells assessed as inhibition of dopamine-mediated Ca+2 stimulation pretreated for 10 mins followed by addition of dopamine by fluo-4 AM dye-based FLIPR assay; type: cell-based
[16] = Clearance in portal vein cannulated Sprague-Dawley rat blood; settings: whole blood
D(3) dopamine receptor [17] = biological target: T2, D(3) dopamine receptor; assay: Displacement of [3H]-spiperone from human dopamine D3 receptor expressed in CHO-K1 cell membranes after 90 mins by liquid scintillation counter method
[18] = Fraction absorbed in portal vein cannulated Sprague-Dawley rat model; settings: in vivo
[19] = Fraction unbound in Sprague-Dawley rat blood
in vitro [20] = settings: human, liver microsomes, CLH
Cytochrome P450 2C9 = Cytochrome P450 2C9 (Homo sapiens, UniProt P11712); assay: Inhibition of recombinant human CYP2C9 expressed in baculosomes preincubated for 10 mins followed by cofactor addition measured every minute for 10 mins using 7-methoxy-4-trifluoromethylcoumarin-3-acetic acid as substrate by CYPEX assay
in vitro [21] = settings: rat, liver microsomes, CLH
Cytochrome P450 2C19 = Cytochrome P450 2C19 (Homo sapiens, UniProt P33261); assay: Inhibition of recombinant human CYP2C19 expressed in baculosomes preincubated for 10 mins followed by cofactor addition measured every minute for 10 mins using 3-butyryl-7-methoxycoumarin as substrate by CYPEX assay
in vitro [22] = settings: human, Caco-2
[23] = Permeability across apical to basolateral side in human Caco2 cells; settings: Caco-2, permeability
D(4) dopamine receptor = biological target: T6, D(4) dopamine receptor (Homo sapiens, UniProt P21917); assay: Binding affinity to dopamine D4 receptor (unknown origin)
T6 sequence (P21917 whole entry): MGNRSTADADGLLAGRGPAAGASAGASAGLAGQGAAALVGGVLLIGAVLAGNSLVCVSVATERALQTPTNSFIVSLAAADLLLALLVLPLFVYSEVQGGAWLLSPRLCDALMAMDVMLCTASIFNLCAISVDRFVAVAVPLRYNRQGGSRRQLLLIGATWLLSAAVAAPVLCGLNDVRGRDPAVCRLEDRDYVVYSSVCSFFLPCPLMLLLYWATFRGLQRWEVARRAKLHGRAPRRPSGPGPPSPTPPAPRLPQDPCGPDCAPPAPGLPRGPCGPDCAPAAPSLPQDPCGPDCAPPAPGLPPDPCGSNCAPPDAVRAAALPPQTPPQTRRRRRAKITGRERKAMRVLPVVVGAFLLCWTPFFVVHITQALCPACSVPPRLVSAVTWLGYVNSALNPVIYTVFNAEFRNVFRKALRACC

[24] = Solubility of compound; type: physicochemical

T5 sequence (P14416 whole entry): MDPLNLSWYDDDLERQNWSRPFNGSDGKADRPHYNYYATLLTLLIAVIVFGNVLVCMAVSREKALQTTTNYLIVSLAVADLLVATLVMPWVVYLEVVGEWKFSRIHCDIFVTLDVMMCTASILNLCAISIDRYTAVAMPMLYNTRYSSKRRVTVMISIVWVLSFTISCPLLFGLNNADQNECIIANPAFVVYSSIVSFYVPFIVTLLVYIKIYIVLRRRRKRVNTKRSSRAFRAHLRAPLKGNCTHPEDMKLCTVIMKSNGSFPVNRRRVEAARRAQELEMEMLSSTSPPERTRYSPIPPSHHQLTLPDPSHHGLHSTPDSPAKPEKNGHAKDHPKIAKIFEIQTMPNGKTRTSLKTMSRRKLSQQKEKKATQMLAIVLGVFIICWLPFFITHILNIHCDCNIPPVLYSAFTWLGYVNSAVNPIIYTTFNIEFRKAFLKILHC
T2 sequence (P35462 whole entry): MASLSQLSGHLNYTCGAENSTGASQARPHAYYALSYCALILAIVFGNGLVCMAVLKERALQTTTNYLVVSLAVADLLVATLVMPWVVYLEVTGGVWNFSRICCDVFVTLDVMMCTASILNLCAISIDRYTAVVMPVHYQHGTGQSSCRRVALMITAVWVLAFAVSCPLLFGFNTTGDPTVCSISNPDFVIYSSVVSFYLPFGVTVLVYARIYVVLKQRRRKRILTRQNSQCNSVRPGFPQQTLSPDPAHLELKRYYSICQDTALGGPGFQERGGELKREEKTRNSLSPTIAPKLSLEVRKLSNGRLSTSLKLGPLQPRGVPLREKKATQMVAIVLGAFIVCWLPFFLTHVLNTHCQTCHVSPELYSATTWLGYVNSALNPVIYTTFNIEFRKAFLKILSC
T1 sequence (P08684 whole entry): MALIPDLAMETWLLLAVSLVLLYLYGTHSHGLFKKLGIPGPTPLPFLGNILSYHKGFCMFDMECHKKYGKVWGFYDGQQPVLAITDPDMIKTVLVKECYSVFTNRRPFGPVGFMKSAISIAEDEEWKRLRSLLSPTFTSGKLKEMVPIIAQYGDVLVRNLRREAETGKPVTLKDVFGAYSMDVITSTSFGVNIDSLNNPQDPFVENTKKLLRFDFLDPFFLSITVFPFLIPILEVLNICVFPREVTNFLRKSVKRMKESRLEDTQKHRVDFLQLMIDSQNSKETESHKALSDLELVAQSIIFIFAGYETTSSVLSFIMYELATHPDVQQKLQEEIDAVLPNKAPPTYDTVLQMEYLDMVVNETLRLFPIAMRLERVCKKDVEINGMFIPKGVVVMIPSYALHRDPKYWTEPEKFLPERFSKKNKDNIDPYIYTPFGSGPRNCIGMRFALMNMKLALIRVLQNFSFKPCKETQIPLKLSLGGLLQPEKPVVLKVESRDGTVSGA
Sequence of Muscarinic acetylcholine receptor M3 (P20309 whole entry): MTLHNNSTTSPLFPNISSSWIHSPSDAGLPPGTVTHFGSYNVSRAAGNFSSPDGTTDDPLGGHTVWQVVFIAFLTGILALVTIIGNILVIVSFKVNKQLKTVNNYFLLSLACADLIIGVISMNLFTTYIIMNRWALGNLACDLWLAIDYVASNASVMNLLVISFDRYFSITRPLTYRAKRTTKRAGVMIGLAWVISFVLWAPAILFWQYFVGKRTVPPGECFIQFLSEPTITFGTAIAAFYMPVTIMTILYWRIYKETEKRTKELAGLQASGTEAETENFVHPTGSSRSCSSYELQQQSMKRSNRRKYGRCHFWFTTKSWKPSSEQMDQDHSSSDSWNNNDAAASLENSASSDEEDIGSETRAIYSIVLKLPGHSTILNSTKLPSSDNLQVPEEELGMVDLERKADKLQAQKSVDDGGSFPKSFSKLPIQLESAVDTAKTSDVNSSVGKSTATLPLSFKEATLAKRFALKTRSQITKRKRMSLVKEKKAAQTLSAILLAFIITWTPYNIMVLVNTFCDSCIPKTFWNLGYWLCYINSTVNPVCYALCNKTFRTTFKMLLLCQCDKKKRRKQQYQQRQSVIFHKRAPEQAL
Sequence of Voltage-gated inwardly rectifying potassium channel KCNH2 (Q12809 whole entry): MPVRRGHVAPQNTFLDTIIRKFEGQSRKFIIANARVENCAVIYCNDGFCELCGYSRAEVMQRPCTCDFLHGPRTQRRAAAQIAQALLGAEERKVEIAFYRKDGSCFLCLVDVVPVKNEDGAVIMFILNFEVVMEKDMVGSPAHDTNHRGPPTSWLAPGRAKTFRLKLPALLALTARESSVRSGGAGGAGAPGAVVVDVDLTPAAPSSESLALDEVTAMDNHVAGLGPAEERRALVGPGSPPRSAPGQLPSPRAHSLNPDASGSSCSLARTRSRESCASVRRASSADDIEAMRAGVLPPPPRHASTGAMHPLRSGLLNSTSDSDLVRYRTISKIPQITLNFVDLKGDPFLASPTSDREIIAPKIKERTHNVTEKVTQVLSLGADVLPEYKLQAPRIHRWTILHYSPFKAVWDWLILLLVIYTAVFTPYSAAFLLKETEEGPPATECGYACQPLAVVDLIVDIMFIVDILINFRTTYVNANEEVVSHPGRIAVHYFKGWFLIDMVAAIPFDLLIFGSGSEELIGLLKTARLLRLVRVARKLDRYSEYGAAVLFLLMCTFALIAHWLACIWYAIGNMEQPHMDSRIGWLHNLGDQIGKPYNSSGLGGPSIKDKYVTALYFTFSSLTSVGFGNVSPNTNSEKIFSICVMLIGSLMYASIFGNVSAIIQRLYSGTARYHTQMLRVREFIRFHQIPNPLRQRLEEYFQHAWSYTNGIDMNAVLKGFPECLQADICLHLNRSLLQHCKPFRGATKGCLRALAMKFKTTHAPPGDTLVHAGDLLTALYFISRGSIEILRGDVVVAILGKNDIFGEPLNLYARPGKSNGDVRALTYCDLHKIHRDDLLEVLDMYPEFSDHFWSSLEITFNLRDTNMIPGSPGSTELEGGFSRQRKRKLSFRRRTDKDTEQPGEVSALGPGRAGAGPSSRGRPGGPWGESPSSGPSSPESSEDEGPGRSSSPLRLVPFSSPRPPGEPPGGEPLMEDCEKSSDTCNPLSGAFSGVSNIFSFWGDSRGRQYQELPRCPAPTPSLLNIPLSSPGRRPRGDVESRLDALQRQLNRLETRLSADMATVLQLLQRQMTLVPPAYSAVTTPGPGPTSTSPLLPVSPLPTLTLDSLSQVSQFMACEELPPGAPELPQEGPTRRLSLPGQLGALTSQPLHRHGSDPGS
Sequence of Cytochrome P450 2D6 (P10635 whole entry): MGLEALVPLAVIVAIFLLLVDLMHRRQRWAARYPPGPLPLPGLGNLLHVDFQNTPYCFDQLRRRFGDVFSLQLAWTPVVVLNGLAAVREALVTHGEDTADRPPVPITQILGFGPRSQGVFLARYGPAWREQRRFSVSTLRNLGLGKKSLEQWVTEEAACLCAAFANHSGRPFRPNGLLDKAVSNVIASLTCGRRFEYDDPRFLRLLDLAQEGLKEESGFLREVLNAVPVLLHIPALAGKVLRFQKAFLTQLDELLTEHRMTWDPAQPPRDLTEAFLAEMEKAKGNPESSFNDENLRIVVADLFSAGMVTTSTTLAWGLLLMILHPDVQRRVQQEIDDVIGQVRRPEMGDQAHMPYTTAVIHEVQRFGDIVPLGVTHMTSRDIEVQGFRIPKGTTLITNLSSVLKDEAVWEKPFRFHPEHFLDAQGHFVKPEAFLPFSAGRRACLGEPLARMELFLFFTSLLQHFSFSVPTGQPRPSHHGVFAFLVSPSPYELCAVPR
Sequence of Cytochrome P450 2C9 (P11712 whole entry): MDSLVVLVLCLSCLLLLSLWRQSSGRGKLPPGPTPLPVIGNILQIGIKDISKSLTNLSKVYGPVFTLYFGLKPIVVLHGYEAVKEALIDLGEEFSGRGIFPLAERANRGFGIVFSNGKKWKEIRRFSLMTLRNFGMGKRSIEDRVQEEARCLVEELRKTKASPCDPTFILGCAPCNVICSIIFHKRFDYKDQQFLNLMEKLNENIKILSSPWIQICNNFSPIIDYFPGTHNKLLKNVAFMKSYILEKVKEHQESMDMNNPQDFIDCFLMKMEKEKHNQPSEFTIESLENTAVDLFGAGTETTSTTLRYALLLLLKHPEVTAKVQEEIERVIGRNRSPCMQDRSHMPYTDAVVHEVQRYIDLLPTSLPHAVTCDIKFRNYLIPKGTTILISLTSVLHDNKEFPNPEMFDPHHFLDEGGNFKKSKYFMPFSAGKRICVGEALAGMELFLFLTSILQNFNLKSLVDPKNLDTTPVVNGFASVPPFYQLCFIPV
Sequence of Cytochrome P450 2C19 (P33261 whole entry): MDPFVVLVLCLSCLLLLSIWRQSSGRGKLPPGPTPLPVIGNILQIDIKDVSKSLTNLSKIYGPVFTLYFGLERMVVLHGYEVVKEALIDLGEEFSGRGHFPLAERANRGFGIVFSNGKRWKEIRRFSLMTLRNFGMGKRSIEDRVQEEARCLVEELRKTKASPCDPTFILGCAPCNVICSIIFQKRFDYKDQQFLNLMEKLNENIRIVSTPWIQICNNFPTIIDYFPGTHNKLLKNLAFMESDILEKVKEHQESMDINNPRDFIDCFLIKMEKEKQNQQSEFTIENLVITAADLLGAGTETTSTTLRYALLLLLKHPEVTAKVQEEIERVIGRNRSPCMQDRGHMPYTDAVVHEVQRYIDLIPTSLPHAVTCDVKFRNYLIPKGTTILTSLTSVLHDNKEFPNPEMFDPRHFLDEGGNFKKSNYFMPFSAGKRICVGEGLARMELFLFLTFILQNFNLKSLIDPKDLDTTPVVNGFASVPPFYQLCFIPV

Row | pKi [1] | pIC50 (Cytochrome P450 3A4 [2]) | pIC50 (Cytochrome P450 3A4 [3]) | hepatic extraction ratio (in vivo [4]) | pIC50 (Cytochrome P450 2D6) | bioavailability (in vivo [7]) | pKi [8] | Vd [9] | fraction unbound [12] | pIC50 (Cytochrome P450 1A2) | half-life [13] | pKi (D(2) dopamine receptor [14]) | clearance [16] | pKi (D(3) dopamine receptor [17]) | Fa [18] | fraction unbound [19] | microsomal CLint at 0.5 µM (in vitro [20]) | pIC50 (Cytochrome P450 2C9) | microsomal CLint at 0.5 µM (in vitro [21]) | Compound | pIC50 [10] | other results
1 | 6.61 | < 5.52 | < 5.52 | 0.07 | < 5.52 | 73% | 6.96 | 1.1 L/kg | 0.014 | < 5.52 | 90 min | 7.20 | 20 mL/min/kg | 8.90 | 79% | 0.0025 | 177 µL/min/mg | < 5.52 | 43 µL/min/mg | Cc1ncoc1-c1nnc(SCCCN2CC3CCN(c4ccc(C(F)(F)F)cc4F)C3C2)n1C (stereo in doubt; 8b) | 6.40 | efflux ratio [5]: 0.55; pKi (D(3) dopamine receptor [6]): 8.80; Papp A→B [11]: 5.5 ×10⁻⁶ cm/s; pKi (D(2) dopamine receptor [15]): 7.30; pIC50 (Cytochrome P450 2C19): < 5.52
2 | 5.96 | < 4.70 | < 4.70 | 0.4 | < 4.70 | 3% | 5.76 | 4.2 L/kg | 0.022 | < 4.70 | 126 min | 6.20 | 37 mL/min/kg | 8.10 | 5% | 0.044 | 33 µL/min/mg | < 4.70 | 47 µL/min/mg | Cn1c(SCCCN2CC3CCN(c4ccc(C(F)(F)F)cc4)C3C2)nnc1-c1cc[nH]c(=O)c1 (stereo in doubt; 55b) | 5.60 | efflux ratio (in vitro [22]): 3.8; Papp A→B [23]: 4.2 ×10⁻⁶ cm/s; pKi (D(4) dopamine receptor): 4.80; solubility [24]: 200 µg/mL (≈ 396 µM); pIC50 (Cytochrome P450 2C19): < 4.70
